The record followed here is patent US20250236617A1, “BICYCLIC TETRAHYDROTHIAZEPINE DERIVATIVES” (Hoffmann-La Roche Inc., priority 2022, published 2025).

By IC50 is commonly meant the concentration that gives 50% inhibition. Read a high IC50 as weaker potency in that assay.

Experiment [1] concerns primary human T-cells. The experiment can be described thus: IL2 secretion measurements in CD3-stimulated T-cells. The experiment is classed as cell-based. Conditions: CD3 condition; for Emax IL2 (% activation): 24 hours, 20 μM reference compound A1 = 100%; for EC50: IL2 secretion after 24 hours, read-out: Tcell IL2 CD3 EC50. Put shortly:
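Expanded primary human T-cells (100 k/well, RPMI + 5% human serum) on plate-bound anti-CD3 (donor-titrated) or PBS counter-screen wells, 5–6 pt dose response from 20 or 10 μM top (dilution factor 3.333), 0.2% DMSO final. IL-2 in 24 h supernatant by ProQuantum immunoassay or ELISA. Normalised to DMSO (0%) and 20 μM reference A1 (100%); EC50 and Emax from sigmoidal fit.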

In experiment [2] the target is DGKzeta (hDGKzeta(1-928)-N-His) (Homo sapiens (Human), UniProt Q13574). The experiment can be described thus: In vitro DGK inhibition assay, ADP-Glo (in house), DGKzeta. The experiment is classed as biochemical. The note with it: DLG liposomes, 50 μM ATP, 2 nM enzyme, 1 hour reaction. The method, then: (§1) DGK α and ζ kinases use ATP to phosphorylate the substrate 1,2-dilauroyl-sn-glycerol (DLG, incorporated in the liposomes). ATP is converted to ADP as a result of this enzymatic reaction.
Sequence of DGKzeta (hDGKzeta(1-928)-N-His) (Q13574 whole entry): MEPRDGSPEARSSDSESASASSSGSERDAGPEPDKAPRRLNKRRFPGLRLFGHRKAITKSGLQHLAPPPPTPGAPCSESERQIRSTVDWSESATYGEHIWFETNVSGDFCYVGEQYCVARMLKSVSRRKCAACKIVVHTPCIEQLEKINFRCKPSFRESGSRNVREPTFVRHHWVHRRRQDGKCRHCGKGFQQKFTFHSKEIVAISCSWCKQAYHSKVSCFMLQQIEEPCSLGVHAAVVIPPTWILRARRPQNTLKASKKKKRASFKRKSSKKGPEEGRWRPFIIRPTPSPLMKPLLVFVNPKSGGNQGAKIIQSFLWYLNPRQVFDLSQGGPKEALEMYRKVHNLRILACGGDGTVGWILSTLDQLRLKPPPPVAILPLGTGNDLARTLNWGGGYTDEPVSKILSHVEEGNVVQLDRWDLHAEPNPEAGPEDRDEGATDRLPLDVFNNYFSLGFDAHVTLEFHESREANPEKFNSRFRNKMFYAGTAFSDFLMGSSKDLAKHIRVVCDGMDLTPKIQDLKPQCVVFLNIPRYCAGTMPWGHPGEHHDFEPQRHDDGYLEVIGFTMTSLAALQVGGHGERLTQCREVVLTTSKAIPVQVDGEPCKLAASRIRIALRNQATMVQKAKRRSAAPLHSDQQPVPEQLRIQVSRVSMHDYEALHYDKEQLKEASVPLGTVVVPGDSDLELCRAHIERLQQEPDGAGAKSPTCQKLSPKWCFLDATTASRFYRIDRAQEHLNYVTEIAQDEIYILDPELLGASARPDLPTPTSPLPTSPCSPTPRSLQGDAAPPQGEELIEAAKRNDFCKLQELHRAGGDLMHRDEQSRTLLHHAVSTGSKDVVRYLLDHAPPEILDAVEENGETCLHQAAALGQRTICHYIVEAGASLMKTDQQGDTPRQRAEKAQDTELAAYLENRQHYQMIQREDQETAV
(§2) After the kinase reaction, an ATP-depletion reagent is added to terminate the kinase reaction and deplete any remaining ATP, leaving only ADP. Second, a detection reagent is added to simultaneously convert ADP to ATP and allow the newly synthesized ATP to be converted to light using a coupled luciferase/luciferin reaction.
(§3) Purification of both enzymes was performed as previously described by Takahashi et al., PeerJ, 2018 (Takahashi, D.; Sakane, F. Expression and purification of human diacylglycerol kinase alpha from baculovirus-infected insect cells for structural studies. PeerJ 2018, 6, No. e5449).
(§4) A concentrated liposome solution was prepared in assay buffer without DTT and BSA: 2 mM of DLG in 21 mM of total liposome (2 mM DLG/8 mM PS/11 mM PC). The reaction mixtures contain the assay buffer with a final DLG concentration of 125 uM ATP concentrations of 25 μM (for DGKA assay) or 50 μM (for DGKZ assay). The reactions were started by addition of DGK α and ζ kinases at 4 nM and 2 nM final concentrations, respectively. After 1 hour reaction, the amount of ADP formed was detected with the ADP-Glo kinase assay (Promega) according to the manufacturer instructions. Compounds were added in 11-points dose response, starting at […], 1:3 dilutions, with a final DMSO concentration of 2%. The multidrop combi was used as a liquid handler and luminescence was read with 0.5 s by the envision reader (PE).

Experiment [3] has as its system primary human T-cells. The experiment can be described thus: T-cell proliferation assay (CellTiter-Glo). Conditions: CD3 condition; for Emax proliferation (% activation): 5 days, 20 μM reference compound A1 = 100%; for EC50: proliferation after 5 days, CellTiter-Glo, read-out: Tcell Proliferation CD3 EC50. The experiment is classed as cell-based. For orientation: ATP-based viability assays read luminescence as a measure of living cells.

For experiment [4], the target named is DGKalpha (hDGKalpha(1-735)-N-His) (Homo sapiens (Human), UniProt P23743). As to the kind of experiment: In vitro DGK inhibition assay, ADP-Glo (in house), DGKalpha. The note with it: DLG liposomes, 25 μM ATP, 4 nM enzyme, 1 hour reaction. The experiment is classed as biochemical. On the procedure: as §1, §2, §3, §4
Sequence of DGKalpha (hDGKalpha(1-735)-N-His) (P23743 whole entry): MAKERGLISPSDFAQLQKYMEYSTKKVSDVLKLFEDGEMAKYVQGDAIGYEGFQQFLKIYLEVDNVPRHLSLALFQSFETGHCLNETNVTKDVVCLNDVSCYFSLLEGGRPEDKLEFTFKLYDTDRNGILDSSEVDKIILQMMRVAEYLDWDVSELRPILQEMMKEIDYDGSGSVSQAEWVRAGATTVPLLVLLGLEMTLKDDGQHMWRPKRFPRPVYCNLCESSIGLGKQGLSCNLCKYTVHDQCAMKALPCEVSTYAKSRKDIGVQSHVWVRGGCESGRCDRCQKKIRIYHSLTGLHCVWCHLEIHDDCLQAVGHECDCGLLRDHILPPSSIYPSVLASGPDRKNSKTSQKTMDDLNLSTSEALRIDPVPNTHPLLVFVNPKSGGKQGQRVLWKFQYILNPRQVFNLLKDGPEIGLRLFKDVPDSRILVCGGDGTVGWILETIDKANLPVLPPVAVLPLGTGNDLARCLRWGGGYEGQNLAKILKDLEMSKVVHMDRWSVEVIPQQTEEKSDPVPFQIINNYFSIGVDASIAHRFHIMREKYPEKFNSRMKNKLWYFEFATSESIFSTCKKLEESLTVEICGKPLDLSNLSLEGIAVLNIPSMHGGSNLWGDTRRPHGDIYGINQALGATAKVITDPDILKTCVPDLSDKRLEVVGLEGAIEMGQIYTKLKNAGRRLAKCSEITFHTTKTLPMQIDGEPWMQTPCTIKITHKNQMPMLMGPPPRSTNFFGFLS

For `COc1ccc(-c2ccc(CN3C(=O)[C@@H](N)CS(=O)(=O)c4cc(F)c(-c5cncc(C(C)(C)C)c5)cc43)cc2)cc1` [Example 30, (3R)-3-amino-7-(5-tert-butyl-3-pyridyl)-8-fluoro-5-[[4-(4-methoxyphenyl)phenyl]methyl]-1,1-dioxo-2,3-dihydro-1λ6,5-benzothiazepin-4-one], in the experiment with primary human T-cells [1], the “Emax IL2 (% activation)” value stood at 100 % activation. For the same compound, the EC50 with primary human T-cells [1] (Homo sapiens, T-cell) came out at 0.327 µM; in the experiment on primary human T-cells [3] (Homo sapiens, T-cell, 120 h), 0.333 µM. In addition, the IC50 amounted to 2.6 µM in experiment [2] and 29.1 µM in experiment [4]. Further, in the experiment on primary human T-cells [3], the “Emax proliferation (% activation)” value was determined as 177 % activation.
Turning to `CC(C)(C)c1cc(-c2cc3c(cc2F)S(=O)(=O)C[C@H](N)C(=O)N3Cc2ccc(Cl)cc2)cnn1` [Example 31, (3R)-3-amino-7-(6-tert-butylpyridazin-4-yl)-5-[(4-chlorophenyl)methyl]-8-fluoro-1,1-dioxo-2,3-dihydro-1λ6,5-benzothiazepin-4-one], in the experiment on primary human T-cells [1], the “Emax IL2 (% activation)” value is given as 80 % activation. In addition, the EC50 with primary human T-cells [1] (Homo sapiens, T-cell) was 1.09 µM; in the experiment on primary human T-cells [3] (Homo sapiens, T-cell, 120 h) it was 0.501 µM. Moreover, the IC50 in experiment [2] was determined as 3.85 µM; in experiment [4], 35.2 µM. In addition, the “Emax proliferation (% activation)” value with primary human T-cells [3] was 112 % activation.
As for `CC(C)(C)c1cc(-c2cc3c(cc2F)S(=O)(=O)C[C@H](N)C(=O)N3Cc2ccc(-c3ccc(C(F)(F)F)cn3)cc2)cnn1` [Example 32, (3R)-3-amino-7-(6-tert-butylpyridazin-4-yl)-8-fluoro-1,1-dioxo-5-[[4-[5-(trifluoromethyl)-2-pyridyl]phenyl]methyl]-2,3-dihydro-1λ6,5-benzothiazepin-4-one], the “Emax IL2 (% activation)” value with primary human T-cells [1] turned out to be 53 % activation. Besides, the EC50 in the experiment on primary human T-cells [1] (Homo sapiens, T-cell) was 0.966 µM; in the experiment on primary human T-cells [3] (Homo sapiens, T-cell, 120 h) it was 0.439 µM. For the same compound, the IC50 in experiment [2] amounted to 3.21 µM; in experiment [4], 13 µM. Moreover, in the experiment on primary human T-cells [3], the “Emax proliferation (% activation)” value was found to be 164 % activation.
For the compound `N[C@H]1CS(=O)(=O)c2cc(F)c(-c3cnnc(OCC(F)(F)F)c3)cc2N(Cc2ccc(-c3noc(C(F)(F)F)n3)cc2)C1=O` [Example 33, (3R)-3-amino-8-fluoro-1,1-dioxo-7-[6-(2,2,2-trifluoroethoxy)pyridazin-4-yl]-5-[[4-[5-(trifluoromethyl)-1,2,4-oxadiazol-3-yl]phenyl]methyl]-2,3-dihydro-1λ6,5-benzothiazepin-4-one], the “Emax IL2 (% activation)” value in the experiment with primary human T-cells [1] was 154 % activation. The EC50 with primary human T-cells [1] (Homo sapiens, T-cell) came out at 2.23 µM; in the experiment with primary human T-cells [3] (Homo sapiens, T-cell, 120 h), 0.298 µM. Besides, the IC50 is 20 µM in experiment [2] and 22.2 µM in experiment [4]. Further, in the experiment with primary human T-cells [3], the “Emax proliferation (% activation)” value is 103 % activation.
With `CC(C)(C)c1cc(-c2cc3c(cc2F)S(=O)(=O)C[C@H](N)C(=O)N3Cc2ccc(-c3noc(C(F)(F)F)n3)cc2)cnn1` [Example 34, (3R)-3-amino-7-(6-tert-butylpyridazin-4-yl)-8-fluoro-1,1-dioxo-5-[[4-[5-(trifluoromethyl)-1,2,4-oxadiazol-3-yl]phenyl]methyl]-2,3-dihydro-1λ6,5-benzothiazepin-4-one], the “Emax IL2 (% activation)” value in the experiment with primary human T-cells [1] was 96 % activation. The EC50 with primary human T-cells [1] (Homo sapiens, T-cell) stood at 1.4 µM; with primary human T-cells [3] (Homo sapiens, T-cell, 120 h), 0.361 µM. The IC50 in experiment [2] turned out to be 7.56 µM; in experiment [4], 13.4 µM. Besides, the “Emax proliferation (% activation)” value with primary human T-cells [3] was determined as 127 % activation.
As for `CC(C)(C)c1cc(-c2cc3c(cc2F)S(=O)(=O)C[C@@H](N)C(=O)N3Cc2ccc(-c3noc(C(F)(F)F)n3)cc2)cnn1` [Example 35], in the experiment with primary human T-cells [1], the “Emax IL2 (% activation)” value is given as 480 % activation. Further, the EC50 turned out to be 3.13 µM in the experiment on primary human T-cells [1] and 1.04 µM with primary human T-cells [3]. Further, the IC50 was found to be 17.2 µM in experiment [2] and 19.9 µM in experiment [4]. Moreover, in the experiment with primary human T-cells [3], the “Emax proliferation (% activation)” value was 132 % activation.
In the case of `CC(C)(C)c1nncc(-c2cc3c(cc2F)S(=O)(=O)C[C@H](N)C(=O)N3Cc2ccc(-c3noc(C(F)(F)F)n3)cc2)n1` [Example 36, (3R)-3-amino-8-fluoro-1,1-dioxo-7(3R)-3-amino-7-(3-tert-butyl-1,2,4-triazin-5-yl)-8-fluoro-1,1-dioxo-5-[[4-[5-(trifluoromethyl)-1,2,4-oxadiazol-3-yl]phenyl]methyl]-2,3-dihydro-1λ6,5-benzothiazepin-4-one], in the experiment with primary human T-cells [1], the “Emax IL2 (% activation)” value amounted to 88 % activation. For the same compound, the EC50 in the experiment with primary human T-cells [1] (Homo sapiens, T-cell) was determined as 1.56 µM; in the experiment on primary human T-cells [3] (Homo sapiens, T-cell, 120 h), 1.35 µM. Further, the IC50 in experiment [2] stood at 1.5 µM; in experiment [4], 24.5 µM. For the same compound, the “Emax proliferation (% activation)” value with primary human T-cells [3] is given as 108 % activation.
